Like-named read-outs stand apart in the source and are kept apart here.
Test system: P. aeruginosa isolates
Assay: Phase 2 study: MIC of P. aeruginosa isolates to levofloxacin
Format: cell-based
Details: Pseudomonas aeruginosa
Experimental: Efficacy was evaluated by microbiologic assessment of sputum samples, time to need for anti-pseudomonal antimicrobials, the Cystic Fibrosis Questionaire-Revised (CFQ-R), and pulmonary function tests. […] Pair-wise comparisons between all the treatment arms were conducted as secondary analyses.

## C[C@H]1COc2c(N3CCN(C)CC3)c(F)cc3c(=O)c(C(=O)O)cn1c23 [Levofloxacin, levofloxacin]
24 h, EE, 120 mg QD, Day 1, read-out: MIC50 (all organisms)
  MIC50: 4 µg/mL
24 h, EE, 120 mg QD, Day 1, read-out: MIC90 (all organisms)
  MIC90: 32 µg/mL
24 h, EE, 240 mg BID, Day 1, read-out: MIC50 (all organisms)
  MIC50: 4 µg/mL
24 h, EE, 240 mg BID, Day 1, read-out: MIC90 (all organisms)
  MIC90: 16 µg/mL
24 h, EE, 240 mg QD, Day 1, read-out: MIC50 (all organisms)
  MIC50: 4 µg/mL
24 h, EE, 240 mg QD, Day 1, read-out: MIC90 (all organisms)
  MIC90: 16 µg/mL
24 h, EE, combined 240 mg QD and BID, Day 1, read-out: MIC50 (all organisms)
  MIC50: 4 µg/mL
24 h, EE, combined 240 mg QD and BID, Day 1, read-out: MIC90 (all organisms)
  MIC90: 16 µg/mL
24 h, MITT, 120 mg QD, Day 1, read-out: Highest MIC, MIC50
  MIC50: 8 µg/mL
24 h, MITT, 120 mg QD, Day 1, read-out: Highest MIC, MIC90
  MIC90: 32 µg/mL
24 h, MITT, 120 mg QD, Day 1, read-out: MIC50 (all organisms)
  MIC50: 4 µg/mL
24 h, MITT, 120 mg QD, Day 1, read-out: MIC90 (all organisms)
  MIC90: 32 µg/mL
24 h, MITT, 240 mg BID, Day 1, read-out: Highest MIC, MIC50
  MIC50: 6 µg/mL
24 h, MITT, 240 mg BID, Day 1, read-out: Highest MIC, MIC90
  MIC90: 32 µg/mL
24 h, MITT, 240 mg BID, Day 1, read-out: MIC50 (all organisms)
  MIC50: 4 µg/mL
24 h, MITT, 240 mg BID, Day 1, read-out: MIC90 (all organisms)
  MIC90: 16 µg/mL
24 h, MITT, 240 mg QD, Day 1, read-out: Highest MIC, MIC50
  MIC50: 4 µg/mL
24 h, MITT, 240 mg QD, Day 1, read-out: Highest MIC, MIC90
  MIC90: 32 µg/mL
24 h, MITT, 240 mg QD, Day 1, read-out: MIC50 (all organisms)
  MIC50: 4 µg/mL
24 h, MITT, 240 mg QD, Day 1, read-out: MIC90 (all organisms)
  MIC90: 16 µg/mL
24 h, MITT, combined 240 mg QD and BID, Day 1, read-out: Highest MIC, MIC50
  MIC50: 4 µg/mL
24 h, MITT, combined 240 mg QD and BID, Day 1, read-out: Highest MIC, MIC90
  MIC90: 32 µg/mL
24 h, MITT, combined 240 mg QD and BID, Day 1, read-out: MIC50 (all organisms)
  MIC50: 4 µg/mL
24 h, MITT, combined 240 mg QD and BID, Day 1, read-out: MIC90 (all organisms)
  MIC90: 16 µg/mL
24 h, Table 14, EE, 120 mg QD, Day 1, read-out: MIC50 (all organisms)
  MIC50: 8 µg/mL
24 h, Table 14, EE, 120 mg QD, Day 1, read-out: MIC90 (all organisms)
  MIC90: 32 µg/mL
24 h, Table 14, EE, 240 mg BID, Day 1, read-out: MIC50 (all organisms)
  MIC50: 6 µg/mL
24 h, Table 14, EE, 240 mg BID, Day 1, read-out: MIC90 (all organisms)
  MIC90: 32 µg/mL
24 h, Table 14, EE, 240 mg QD, Day 1, read-out: MIC50 (all organisms)
  MIC50: 4 µg/mL
24 h, Table 14, EE, 240 mg QD, Day 1, read-out: MIC90 (all organisms)
  MIC90: 32 µg/mL
24 h, Table 14, EE, combined 240 mg QD and BID, Day 1, read-out: MIC50 (all organisms)
  MIC50: 4 µg/mL
24 h, Table 14, EE, combined 240 mg QD and BID, Day 1, read-out: MIC90 (all organisms)
  MIC90: 32 µg/mL
168 h, EE, 120 mg QD, Day 7, read-out: MIC50 (all organisms)
  MIC50: 4 µg/mL
168 h, EE, 120 mg QD, Day 7, read-out: MIC90 (all organisms)
  MIC90: 16 µg/mL
168 h, EE, 240 mg BID, Day 7, read-out: MIC50 (all organisms)
  MIC50: 4 µg/mL
168 h, EE, 240 mg BID, Day 7, read-out: MIC90 (all organisms)
  MIC90: 16 µg/mL
168 h, EE, 240 mg QD, Day 7, read-out: MIC50 (all organisms)
  MIC50: 2 µg/mL
168 h, EE, 240 mg QD, Day 7, read-out: MIC90 (all organisms)
  MIC90: 16 µg/mL
168 h, EE, combined 240 mg QD and BID, Day 7, read-out: MIC50 (all organisms)
  MIC50: 4 µg/mL
168 h, EE, combined 240 mg QD and BID, Day 7, read-out: MIC90 (all organisms)
  MIC90: 16 µg/mL
168 h, MITT, 120 mg QD, Day 7, read-out: Highest MIC, MIC50
  MIC50: 8 µg/mL
168 h, MITT, 120 mg QD, Day 7, read-out: Highest MIC, MIC90
  MIC90: 32 µg/mL
168 h, MITT, 120 mg QD, Day 7, read-out: MIC50 (all organisms)
  MIC50: 4 µg/mL
168 h, MITT, 120 mg QD, Day 7, read-out: MIC90 (all organisms)
  MIC90: 16 µg/mL
168 h, MITT, 240 mg BID, Day 7, read-out: Highest MIC, MIC50
  MIC50: 6 µg/mL
168 h, MITT, 240 mg BID, Day 7, read-out: Highest MIC, MIC90
  MIC90: 32 µg/mL
168 h, MITT, 240 mg BID, Day 7, read-out: MIC50 (all organisms)
  MIC50: 4 µg/mL
168 h, MITT, 240 mg BID, Day 7, read-out: MIC90 (all organisms)
  MIC90: 16 µg/mL
168 h, MITT, 240 mg QD, Day 7, read-out: Highest MIC, MIC50
  MIC50: 4 µg/mL
168 h, MITT, 240 mg QD, Day 7, read-out: Highest MIC, MIC90
  MIC90: 16 µg/mL

Reference: patent US10792289B2 (Horizon Orphan LLC, priority 2009, dated 2020)
